Source: PubChem BioAssay (NCI)
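48-hour exposure; five concentrations; linearly interpolated endpoints. TGI: total growth inhibition.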

What was measured:
Assay in all cases: NCI tumour cell line growth inhibition, 48 h
786-0 renal = tested on: 786-0 renal
COLO 205 colon = tested on: COLO 205 colon
HCC-2998 colon = tested on: HCC-2998 colon
HCT-15 colon = tested on: HCT-15 colon
M14 melanoma = tested on: M14 melanoma
MDA-MB-231 breast = tested on: MDA-MB-231 breast
MDA-N = tested on: MDA-N
NCI-H23 lung = tested on: NCI-H23 lung
RPMI-8226 leukemia = tested on: RPMI-8226 leukemia
SK-MEL-2 melanoma = tested on: SK-MEL-2 melanoma
UACC-257 melanoma = tested on: UACC-257 melanoma

Row | Structure (SMILES) | TGI (786-0 renal) | TGI (COLO 205 colon) | TGI (HCC-2998 colon) | TGI (HCT-15 colon) | TGI (M14 melanoma) | TGI (MDA-MB-231 breast) | TGI (MDA-N) | TGI (NCI-H23 lung) | TGI (RPMI-8226 leukemia) | TGI (SK-MEL-2 melanoma) | TGI (UACC-257 melanoma)
1 | CC(=O)c1c2c(c3ccccc3c1O)O[C@@H]1OCC[C@H]21 | > 100 µM | > 100 µM | > 100 µM | > 100 µM | > 100 µM | > 100 µM | > 100 µM | > 100 µM | > 100 µM | > 100 µM | > 100 µM
2 | N#CC(Cc1ccccc1)N(CCC1=CCCCC1)C(c1ccccc1)c1ccccc1 (stereo not given) | > 100 µM | > 100 µM | > 100 µM | > 100 µM | > 100 µM | > 100 µM | > 100 µM | > 100 µM | > 100 µM | > 100 µM | > 100 µM
3 | Cc1cc(-c2nc3ccc(F)cc3s2)ccc1NC(=O)[C@H](C)N | 16.9 µM | 23.8 µM | 4.5 µM | 14.1 µM | 3.94 µM | 22.6 µM | 6.19 µM | 26.1 µM | 13.8 µM | 25.2 µM | 11.8 µM
4 | NC1(c2cc3ccccc3s2)CCCC1 | > 100 µM | 43.1 µM | 46.1 µM | > 100 µM | 56.2 µM | > 100 µM | > 100 µM | > 100 µM | 34.4 µM | > 100 µM | 81.2 µM
5 | NS(=O)(=O)c1nnc(NC(=O)Nc2ccc(Cl)c(Cl)c2)s1 | 67.5 µM | 28.2 µM | 34.8 µM | 50.7 µM | 32.3 µM | 67.1 µM | 44.8 µM | 39.4 µM | 51.5 µM | 74.2 µM | 42 µM
6 | Cc1cc(Nc2ccc(S(=O)(=O)O)c3cc(S(=O)(=O)O)cc(S(=O)(=O)O)c23)c2ccccc2n1 | > 100 µM | > 100 µM | > 100 µM | > 100 µM | > 100 µM | > 100 µM | > 100 µM | > 100 µM | > 100 µM | > 100 µM | > 100 µM
7 | O=C(NCc1ccccc1)c1n[nH][nH]c1=O | > 100 µM | > 100 µM | > 100 µM | > 100 µM | > 100 µM | > 100 µM | > 100 µM | > 100 µM | > 100 µM | > 100 µM | > 100 µM
8 | C=C1CCN2CC[C@@H](OC(=O)/C(C)=C\C)[C@@H]12 | > 100 µM | > 100 µM | > 100 µM | > 100 µM | > 100 µM | > 100 µM | > 100 µM | > 100 µM | > 100 µM | > 100 µM | > 100 µM
9 | CC(=O)Nn1c(=S)[nH]c2ccccc21 | > 100 µM | > 100 µM | > 100 µM | > 100 µM | > 100 µM | > 100 µM | > 100 µM | > 100 µM | > 100 µM | > 100 µM | > 100 µM
10 | Cc1oc2c(cc(O)c3cc(O)ccc32)c2cccc1-2 | > 100 µM | > 100 µM | > 100 µM | > 100 µM | > 100 µM | > 100 µM | > 100 µM | > 100 µM | > 100 µM | > 100 µM | > 100 µM
